From the NIST ThermoML archive (doi:10.1016/j.jct.2015.03.023)
Several values for one entry are separate records, joined by “and”; a condition that tells them apart may be missing. Equal entries are not always repeated.

What was measured:
[1] = refractive index (Na D-line) (dimensionless); xn = mol fraction of the nth substance listed; settings: 101.22 kPa, Liquid, Standard Abbe refractometry
[2] = Liquid; for speed of sound / mass density: 101.33 kPa; for speed of sound: Sing-around technique in a fixed-path interferometer; for mass density: Vibrating tube method; for vapor or sublimation pressure: Ebulliometric method (Recirculating still)
[3] = refractive index (Na D-line) (dimensionless); settings: 101.33 kPa, Liquid, Standard Abbe refractometry

CCCCn1cc[n+](C)c1.[I-] [1-butyl-3-methylimidazolium iodide] + CCCCO
refractive index, [1]
Settings	x1 = 0.108	x1 = 0.171	x1 = 0.311	x1 = 0.381	x1 = 0.51	x1 = 0.574	x1 = 0.623	x1 = 0.802	x1 = 0.85	x1 = 1
293.15 K	–	–	1.4864	1.5007	1.5237	1.5339	1.541	1.5634	1.5686	1.5825
298.15 K	1.4332	1.4508	1.4848	1.4991	1.5221	1.5322	1.5393	1.5618	1.567	1.581
308.15 K	1.4294	1.4472	1.4815	1.4958	1.5189	1.5289	1.5361	1.5587	1.5639	1.5781

CCCCO [butan-1-ol]
Settings	mass density, [2] [kg/m3]	refractive index, [3]	speed of sound, [2] [m/s]	vapor or sublimation pressure, [2] [kPa]
293.15 K	809.8	1.3992 and 1.3993	1256.3	–
298.15 K	805.9	1.3973	1239.5	–
308.15 K	798.2	1.3932	1205.9	–
353.15 K	–	–	–	21.19
363.15 K	–	–	–	33.8
373.15 K	–	–	–	51.73

CCCCO [butan-1-ol] + CCCCn1cc[n+](C)c1.[I-]
[1], x2 = 0
Settings	refractive index
293.15 K	1.3992
298.15 K	1.3973
308.15 K	1.3932

CCCCn1cc[n+](C)c1.[I-] [1-butyl-3-methylimidazolium iodide]
Settings	mass density, 293.15 K [kg/m3]	mass density, 298.15 K [kg/m3]	mass density, 308.15 K [kg/m3]	refractive index, 293.15 K	refractive index, 298.15 K	refractive index, 308.15 K	speed of sound, 293.15 K [m/s]	speed of sound, 298.15 K [m/s]	speed of sound, 308.15 K [m/s]
[2]	1483.5	1479.6	1471.7	–	–	–	1508.1	1497.5	1473.3
[3]	–	–	–	1.5825	1.581	1.5781	–	–	–
